Counter-ions that a name gives are not always drawn.
Compound	melting point
CC(C)COc1ccc2c(n1)CC(C)(C)CC2=O.Cl	157 to 158 °C
CC1(C)CC(=O)c2ccc(OCc3ccccc3)nc2C1.Cl	87 to 88 °C
CC1(C)CC(=O)c2ccc(NCc3ccccc3)nc2C1.Cl	215 to 216 °C
CC1(C)CC(=O)c2ccc(CCc3ccccc3)nc2C1.Cl	173 to 175 °C
CC1(C)CC(=O)c2ccc(Cc3ccccc3)nc2C1.Cl	202 to 204 °C
Cl.O=C1CCCc2nc(Cc3ccccc3)ccc21	185 to 187 °C
COc1ccccc1CCc1ccc2c(n1)CCCC2=O.Cl	160 to 162 °C
Cl.O=C1CCCc2nc(C34CC5CC(CC(C5)C3)C4)ccc21	214 to 216 °C
CC1(C)CC(=O)c2ccc(C34CC5CC(CC(C5)C3)C4)nc2C1.Cl	210 to 212 °C
CC1(C)CC(=O)c2cc(C#N)c(NCc3ccccc3)nc2C1.Cl	163 to 164 °C
CC1(C)CC(=O)c2ccc(OC3CCCCC3)nc2C1.Cl	126 to 127 °C
O=C1CC2(CCCCC2)Cc2nc(OCc3ccccc3)ccc21 (as salt: hydrochloride) [Example 25, 2-Benzyloxy-7,7-pentamethylene-7,8-dihydro-6H-quinoline-5-one hydrochloride]	276 to 277 °C
O=C1CC2(CCCCC2)Cc2nc(C34CC5CC(CC(C5)C3)C4)ccc21 (as salt: hydrochloride) [Example 27, 2-Adamantan-1-yl-7,7-pentamethylene-7,8-dihydro-6H-quinoline-5-one hydrochloride]	221 to 222 °C
CCCCCCc1ccc2c(n1)CC(c1ccc(N(C)C)cc1)CC2=O (stereo not drawn) (as salt: hydrochloride) [Example 32, 7-(4-Dimethylamino-phenyl)-2-hexyl-7,8-dihydro-6H-quinolin-5-one dihydrochloride]	195 to 196 °C
CC1(C)CCc2nc(C34CC5CC(CC(C5)C3)C4)ccc2C1=O (as salt: hydrochloride) [Example 41, 2-Adamantan-1-yl-6,6-dimethyl-7,8-dihydro-6H-quinolin-5-one hydrochloride]	203 to 204 °C
CCCCCCc1ccc2c(n1)C(C)CC(C)(C)C2=O (stereo not drawn) (as salt: hydrochloride) [Example 55, 2-Hexyl-6,6,8-trimethyl-7,8-dihydro-6H-quinolin-5-one hydrochloride]	199 to 200 °C
COc1cccc(-c2ccc3c(n2)CC2(CCCC2)CC3=O)c1 (as salt: hydrochloride) [Example 59, 2-(3-Methoxy-phenyl)-7,7-tetramethylene-7,8-dihydro-6H-quinolin-5-one hydrochloride]	233 to 234 °C
CCCC1CCc2nc(-c3ccc(OC)cc3)ccc2C1=O (stereo not drawn) (as salt: hydrochloride) [Example 60, 2-(4-Methoxy-phenyl)-6-propyl-7,8-dihydro-6H-quinolin-5-one hydrochloride]	212 to 213 °C
CCC1CC(=O)c2ccc(-c3ccc(OC)cc3)nc2C1 (stereo not drawn) (as salt: hydrochloride) [Example 70, 7-Ethyl-2-(4-methoxy-phenyl)-7,8-dihydro-6H-quinolin-5-one hydrochloride]	232 to 233 °C
CCCCSc1nc2c(cc1C#N)C(=O)CC(C)(C)C2 [Example 1, 2-Butylsulfanyl-7,7-dimethyl-5-oxo-5,6,7,8-tetrahydroquinoline-3-carbonitrile]	50 to 52 °C
CCCSc1nc2c(cc1C#N)C(=O)CC(C)(C)C2 [Example 2, 7,7-Dimethyl-5-oxo-2-propylsulfanyl-5,6,7,8-tetrahydroquinoline-3-carbonitrile]	100 to 102 °C
CC(C)Sc1nc2c(cc1C#N)C(=O)CC(C)(C)C2 [Example 3, 2-Isopropylsulfanyl-7,7-dimethyl-5-oxo-5,6,7,8-tetrahydroquinoline-3-carbonitrile]	135 to 136 °C
C=C(C)CSc1nc2c(cc1C#N)C(=O)CC(C)(C)C2 [Example 4, 7,7-Dimethyl-2-(2-methylallysulfanyl)-5-oxo-5,6,7,8-tetrahydroquinoline-3-carbonitrile]	78 to 79 °C
CC(C)CSc1nc2c(cc1C#N)C(=O)CC(C)(C)C2 [Example 5, 2-Isobutylsulfanyl-7,7-dimethyl-5-oxo-5,6,7,8-tetrahydroquinoline-3-carbonitrile]	75 to 76 °C
C=C(C)CSc1nc2c(cc1C#N)C(=O)CCC2 [Example 6, 2-(2-Methylallylsulfanyl)-5-oxo-5,6,7,8-tetrahydroquinoline-3-carbonitrile]	85 to 86 °C
CC1(C)CC(=O)c2cc(C#N)c(N3CCCCC3)nc2C1 [Example 7, 7,7-Dimethyl-5-oxo-2-piperidin-1-yl-5,6,7,8-tetrahydro-quinoline-3-carbonitrile]	99 to 100 °C
COc1ccc(Nc2ccc3c(n2)CC(C)(C)CC3=O)cc1 [Example 86, 2-(4-Methoxy-phenylamino)-7,7-dimethyl-7,8-dihydro-6H-quinolin-5-one]	149 to 150 °C
O=C1c2ccc(Nc3ccccc3)nc2CC2CCCCC12 (stereo not drawn) [Example 111, 2-Phenylamino-6,7,8,9,9a,10-hexahydro-5aH-benzo[g]quinolin-5-one]	214 to 216 °C
CC(Nc1ccc2c(n1)CC1CCCCC1C2=O)c1ccccc1 (stereo not drawn) [Example 112, 2-(1-Phenyl-ethylamino)-6,7,8,9,9a,10-hexahydro-5aH-benzo[g]quinolin-5-one]	156 to 158 °C
O=C1c2ccc(N3CCN(c4ccccc4)CC3)nc2CC2CCCCC12 (stereo not drawn) [Example 114, 2-(4-Phenyl-piperazin-1-yl)-6,7,8,9,9a,10-hexahydro-5aH-benzo[g]quinolin-5-one]	164 to 166 °C
